Consider 27 compounds from patent publication US12534457B2, “Heteroaryl derivative compounds, and uses thereof” (Voronoi Inc., priority 2021, dated 2026).

For this experiment, the system named is Ba/F3 cells expressing EGFR Del19/C797S (EGFR DC). In words: Proliferation inhibitory activity, Ba/F3 cells expressing EGFR Del19/C797S (CellTiter-Glo). The settings on record: Mus musculus, BaF3, 72 hours of compound treatment. The format is cell-based. The method, then: The following experiments were performed to evaluate the inhibitory activity of the compounds according to the present disclosure on Ba/F3 proliferation expressing EGFR C797S, L861Q, G719A, S768I, L718Q, and/or G724S mutations.
For Ba/F3 cells, RPMI-1640 containing 10% FBS and 5 ng/ml IL-3 (R&D Systems) was used. Transduced Ba/F3 cells were cultured after adding 1 μg/ml puromycin (Invitrogen) to the same medium.
At 24 hours before treatment with the compounds, 3000 to 5000 cells were aliquoted into each well of a white clear bottom 96 well plate (Corning). The compounds were diluted in dimethyl sulfoxide (3 times dilution, 12 concentrations in total), and injected in an amount of 1 μl so that the final concentration was 0.2 nM to 5 uM. For measurement of living cells, after 72 hours of compound treatment, the cells were stored at room temperature for 10 min using CellTiter-Glo luminescentcell-viability reagent (Promega), and then luminescence intensity was measured using a reader (SynergyNeo, Biotek). Each test was repeated three times. Result values were calculated as the cell growth rate (%) compared to the control. The graphs were created using GraphPad Prism version 8.3.0 program and the GI50 values were calculated.
Consider `CN1CCN(C2CCN(c3ccc(Nc4cc(N5OCC[C@@H]5c5cc(F)cc(F)c5)ncn4)cc3C(F)(F)F)CC2)CC1` [Example 23, (R)-6-(3-(3,5-difluorophenyl)isoxazolidin-2-yl)-N-(4-(4-(4-methylpiperazin-1-yl)piperidin-1-yl)-3-(trifluoromethyl)phenyl)pyrimidin-4-amine], for which the 50% growth inhibitory concentration (GI50) lay in the range of 50 to 500 nM.
The result for `COc1cc2c(cc1Nc1cc(N3OCC[C@@H]3c3cccc(F)c3F)ncn1)C(=O)N(C)C2` [Example 193, (R)-6-((6-(3-(2,3-difluorophenyl)isoxazolidin-2-yl)pyrimidin-4-yl)amino)-5-methoxy-2-methylisoindolin-1-one] reads 50 to 500 nM.
The result for `Fc1cc(F)cc([C@H]2CCON2c2cc(Nc3cccc4c3OCC4)ncn2)c1` [Example 159, (R)-6-(3-(3,5-difluorophenyl)isoxazolidin-2-yl)-N-(2,3-dihydrobenzofuran-7-yl)pyrimidin-4-amine] reads 50 to 500 nM; that for `COc1cc(N2CCC3(CC2)CCN(C(C)(C)CF)CC3)c(-c2cnn(C)c2)cc1Nc1cc(N2OCC[C@@H]2c2cccc(F)c2F)ncn1` [Example 195, (R)-6-(3-(2,3-difluorophenyl)isoxazolidin-2-yl)-N-(4-(9-(1-fluoro-2-methylpropan-2-yl)-3,9-diazaspiro[5.5]undecan-3-yl)-2-methoxy-5-(1-methyl-1H-pyrazol-4-yl)phenyl)pyrimidin-4-amine], under 50 nM; that for `C[C@@H](Oc1cc(N2CCC(N3CCN(C)CC3)CC2)ccc1Nc1cc(N2OCC[C@@H]2c2ccccc2)ncn1)C(F)(F)F` [Example 56, N-(4-(4-(4-methylpiperazin-1-yl)piperidin-1-yl)-2-(((R)-1,1,1-trifluoropropan-2-yl)oxy)phenyl)-6-((R)-3-phenylisoxazolidin-2-yl)pyrimidin-4-amine], under 50 nM.
As for `CN1Cc2cc(Nc3cc(N4OCC[C@@H]4c4ccccc4)ncn3)ccc2C1=O` [Example 76, (R)-2-methyl-5-((6-(3-phenylisoxazolidin-2-yl)pyrimidin-4-yl)amino)isoindolin-1-one], the GI50 is under 50 nM.
The result for `CCN(CC)C1CCN(c2ccc(Nc3cc(N4OCC[C@@H]4c4ccccc4)ncn3)c(OC)c2)CC1` [Example 98, (R)—N-(4-(4-(diethylamino)piperidin-1-yl)-2-methoxyphenyl)-6-(3-phenylisoxazolidin-2-yl)pyrimidin-4-amine] reads under 50 nM; that for `CCC(=O)Nc1cc(Nc2cc(N3OCC[C@@H]3c3cc(F)cc(F)c3)ncn2)c(OC)cc1N1CCC(N2CCC(N(C)C)CC2)CC1` [Example 85, (R)—N-(5-((6-(3-(3,5-difluorophenyl)isoxazolidin-2-yl)pyrimidin-4-yl)amino)-2-(4-(dimethylamino)-[1,4′-bipiperidin]-1′-yl)-4-methoxyphenyl)propionamide], under 50 nM.
For `CN1CCC2(CC1)CCN(c1ccc(Nc3cc(N4OCC[C@@H]4c4ccccc4)ncn3)cc1)CC2` [Example 135, (R)—N-(4-(9-methyl-3,9-diazaspiro[5.5]undecan-3-yl)phenyl)-6-(3-phenylisoxazolidin-2-yl)pyrimidin-4-amine], the 50% growth inhibitory concentration (GI50) is under 50 nM.
`COc1cc(Nc2cc(N3OCC[C@@H]3c3ccc(Cl)cc3F)ncn2)ccc1N1CCC(N2CCN(C)CC2)CC1` [Example 105, (R)-6-(3-(4-chloro-2-fluorophenyl)isoxazolidin-2-yl)-N-(3-methoxy-4-(4-(4-methylpiperazin-1-yl)piperidin-1-yl)phenyl)pyrimidin-4-amine]: the GI50 was under 50 nM.
`COc1cc(N2CCC(N3CCN(C)CC3)CC2)ccc1Nc1cc(N2OCC[C@@H]2c2cccc(C(F)(F)F)c2F)ncn1` [Example 28, (R)-6-(3-(2-fluoro-3-(trifluoromethyl)phenyl)isoxazolidin-2-yl)-N-(2-methoxy-4-(4-(4-methylpiperazin-1-yl)piperidin-1-yl)phenyl)pyrimidin-4-amine]: the 50% growth inhibitory concentration (GI50) is 50 to 500 nM.
The figure for `Cn1nccc1-c1ccc(Nc2cc(N3OCC[C@@H]3c3ccccc3)ncn2)c2c1OCCO2` [Example 80, (R)—N-(8-(1-methyl-1H-pyrazol-5-yl)-2,3-dihydrobenzo[b][1,4]dioxin-5-yl)-6-(3-phenylisoxazolidin-2-yl)pyrimidin-4-amine] is 50 to 500 nM.
In the case of `CCN1CCN(C2CCN(c3ccc(Nc4cc(N5OCC[C@@H]5c5cccc(F)c5F)ncn4)c(OC)c3)CC2)CC1` [Example 207, (R)-6-(3-(2,3-difluorophenyl)isoxazolidin-2-yl)-N-(4-(4-(4-ethylpiperazin-1-yl)piperidin-1-yl)-2-methoxyphenyl)pyrimidin-4-amine], the GI50 is under 50 nM.
As to `COc1cc(Nc2cc(N3OCC[C@@H]3c3cc(F)ccc3F)ncn2)ccc1N1CCC(N2CCN(C)CC2)CC1` [Example 106, (R)-6-(3-(2,5-difluorophenyl)isoxazolidin-2-yl)-N-(3-methoxy-4-(4-(4-methylpiperazin-1-yl)piperidin-1-yl)phenyl)pyrimidin-4-amine], the GI50 was under 50 nM.
Turning to `CN1CCN(c2ccc(Nc3cc(N4Oc5ccccc5C4c4ccccc4)ncn3)cc2)CC1` (stereo not drawn) [Example 229, N-(4-(4-methylpiperazin-1-yl)phenyl)-6-(3-phenylbenzo[d]isoxazol-2(3H)-yl)pyrimidin-4-amine], the GI50 is 50 to 500 nM.
With `COc1cc(N2CCC(N3CCN(C4COC4)CC3)CC2)ccc1Nc1cc(N2OCC[C@@H]2c2cccc(F)c2F)ncn1` [Example 209, (R)-6-(3-(2,3-difluorophenyl)isoxazolidin-2-yl)-N-(2-methoxy-4-(4-(4-(oxetan-3-yl)piperazin-1-yl)piperidin-1-yl)phenyl)pyrimidin-4-amine], the GI50 is under 50 nM.
In the case of `CC(C)(C)OC(=O)N1CCc2ccc(Nc3cc(N4OCC[C@@H]4c4ccccc4)ncn3)cc2C1` [Example 134, tert-butyl (R)-7-((6-(3-phenylisoxazolidin-2-yl)pyrimidin-4-yl)amino)-3,4-dihydroisoquinoline-2 (1H)-carboxylate], the 50% growth inhibitory concentration (GI50) is under 50 nM.
The result for `COc1cc(N2CCC(N3CCN(C)CC3)CC2)ccc1Nc1cc(N2OCC[C@@H]2c2ccc(F)c(Cl)c2F)ncn1` [Example 130, (R)-6-(3-(3-chloro-2,4-difluorophenyl)isoxazolidin-2-yl)-N-(2-methoxy-4-(4-(4-methylpiperazin-1-yl)piperidin-1-yl)phenyl)pyrimidin-4-amine] reads 50 to 500 nM.
The result for `COc1cc(N2CCC(N3CCN(C)C(=O)C3)CC2)ccc1Nc1cc(N2OCC[C@@H]2c2cccc(F)c2F)ncn1` [Example 224, (R)-4-(1-(4-((6-(3-(2,3-difluorophenyl)isoxazolidin-2-yl)pyrimidin-4-yl)amino)-3-methoxyphenyl)piperidin-4-yl)-1-methylpiperazin-2-one] reads under 50 nM; that for `CCN1C2CC1CN(C1CCN(c3ccc(Nc4cc(N5OCC[C@@H]5c5cccc(F)c5F)ncn4)c(OC)c3)CC1)C2` [Example 219, 6-((R)-3-(2,3-difluorophenyl)isoxazolidin-2-yl)-N-(4-(4-(6-ethyl-3,6-diazabicyclo[3.1.1]heptan-3-yl)piperidin-1-yl)-2-methoxyphenyl)pyrimidin-4-amine], under 50 nM.
The result for `COc1cc(N2CCC(N3CCN(C)CC3)CC2)ccc1Nc1cc(N2OCC[C@@H]2c2cccc3ccccc23)ncn1` [Example 36, (R)—N-(2-methoxy-4-(4-(4-methylpiperazin-1-yl)piperidin-1-yl)phenyl)-6-(3-(naphthalen-1-yl)isoxazolidin-2-yl)pyrimidin-4-amine] reads 50 to 500 nM; that for `COc1cc2c(cc1Nc1cc(N3OCC[C@@H]3c3ccccc3)ncn1)OC[C@H]1C[C@@H](N3CCN(C4CC4)CC3)CCN21` [Example 49, (6aR,8S)-8-(4-cyclopropylpiperazin-1-yl)-2-methoxy-N-(6-((R)-3-phenylisoxazolidin-2-yl)pyrimidin-4-yl)-6,6a,7,8,9,10-hexahydrobenzo[b]pyrido[1,2-d] [1,4]oxazin-3-amine], under 50 nM; that for `CN1CCN(c2ccc(Nc3cc(N4OCC[C@H]4c4ccccc4)ncn3)cc2)CC1` [Example 2, (S)—N-(4-(4-methylpiperazin-1-yl)phenyl)-6-(3-phenylisoxazolidin-2-yl)pyrimidin-4-amine], 50 to 500 nM.
As to `COc1cc(N2CCN(C3CCN(C)CC3)CC2)ccc1Nc1cc(N2OCC[C@@H]2c2ccccc2)ncn1` [Example 101, (R)—N-(2-methoxy-4-(4-(1-methylpiperidin-4-yl)piperazin-1-yl)phenyl)-6-(3-phenylisoxazolidin-2-yl)pyrimidin-4-amine], the 50% growth inhibitory concentration (GI50) was under 50 nM.
As for `COc1cc(C2CCN(C)CC2)ccc1Nc1cc(N2OCC[C@@H]2c2cccc(F)c2F)ncn1` [Example 141, (R)-6-(3-(2,3-difluorophenyl)isoxazolidin-2-yl)-N-(2-methoxy-4-(1-methylpiperidin-4-yl)phenyl)pyrimidin-4-amine], the GI50 is under 50 nM.
As for `Fc1cccc([C@H]2CCON2c2cc(Nc3ccc([C@@H]4CCON4)cc3)ncn2)c1F` [Example 177, 6-((R)-3-(2,3-difluorophenyl)isoxazolidin-2-yl)-N-(4-((S)-isoxazolidin-3-yl)phenyl)pyrimidin-4-amine], the GI50 lay in the range of 50 to 500 nM.
Take `CN(C)CCN(C)c1ccc(Nc2cc(N3OCC[C@@H]3c3cc(F)cc(F)c3)ncn2)cc1` [Example 19, (R)—N^1-(6-(3-(3,5-difluorophenyl)isoxazolidin-2-yl)pyrimidin-4-yl)-N^4-(2-(dimethylamino)ethyl)-N^4-methylbenzene-1,4-diamine]: the GI50 lay within 50 to 500 nM.
